The values below come from patent US9434670B2, “Family of aryl, heteroaryl, O-aryl and O-heteroaryl carbasugars” (TFCHEM, priority 2011, dated 2016).

The test system of data set [1] is β-glucosidase from Almonds. The note with it: as referred in several publications; cited from earlier work.
Data set [2] deals with β-glucosidase from Almonds. Briefly: Enzymatic stability against glycosidase, HPLC analysis after incubation with β-glucosidase. Format: in vitro ADME. The text has this: The enzymatic stability assay has been performed with compound 26 according to the invention and compound A used as a reference compound to control the efficacy of the β-glucosidase. The sergliflozin-A stability has also been evaluated in order to compare the improvement of metabolic stability obtained through the replacement of the intracyclic oxygen atom of the glucose moiety by a CF2 moiety.
All the compounds have been treated with β-glucosidase. The stability of compound 26 and Sergliflozin-A has been assessed by HPLC analysis after incubation with β-glucosidase.
A Gilson HPLC system was used, equipped with a manual injection system (V=20 μL), a Diode Array Detector (DAD172) set at a wavelength of 230 nm and a 150 mm×4.6 mm, 5 μm HICHROM Kromasil 100-5C18 reverse phase column. A linear HPLC binary gradient was used as follows: solvent A was water and solvent B was acetonitrile. Following the injection of 20 μL of a sample, solvent B was held at 20% for 3 min, increased from 20% to 90% in 17 min, held at 90% for 4 min; finally, solvent B was decreased back to 20% over 5.5 min and was held at 20% for 3.5 min.
The procedure has been adapted from J. Agric. Food Chem. 2005, 53, 4918-4924.
100 μL of a solution of compound 26 at 4.5·10^−4 mol·L^−1 in acetonitrile was added to a solution containing 800 μL of phosphate buffer (73173 Fluka, pH 7) in the presence of β-glucosidase from Almonds (10 U, 100 μL of a 5.6 mg·mL^−1 solution in phosphate buffer, (G4511sigma 18.7 U per mg)) and was kept 4 h at 37° C.
100 μL of a solution of sergliflozin-A at 4.5·10^−4 moL·L^−1 in acetonitrile has been treated in the presence of β-glucosidase following the same process.
In parallel, 100 μL of a solution of p-nitrophenyl-β-glucoside (compound A) at 4.5·10^−4 mol·L^−1 in phosphate buffer (73173 Fluka, pH 7) was added to a solution containing 700 μL of phosphate buffer and 100 μL of acetonitrile, with the presence of β-glucosidase from Almonds (10 U, 100 μL of a 5.6 mg·mL^−1 solution in phosphate buffer, (G4511 sigma 18.7 U per mg)) and was kept 4 h at 37° C. During the process in the presence of β-glucosidase, a yellow coloration was observed that underlines the decomposition of compound. A.
HPLC of compound 21 (FIG. 7), compound 26 (FIG. 8) and Sergliflozin-A (FIG. 10) have been performed to follow up in the experiments the formation of compound 21 (the aglycone part) implying a degradation of the starting material.
In order to evaluate the percentage of degradation, a calibration has been done on compound 21 giving the following results:
Data have been plotted (Area % versus concentration) and the linear regression obtained was characterized by the equation y=53629x and a R^2=0.994. […]

As for `COc1ccc(Cc2ccccc2O[C@@H]2O[C@H](CO)[C@@H](O)[C@H](O)[C@H]2O)cc1` [Sergliflozin-A], the “cleavage by β-glucosidase” value in data set [1] was “undergo cleavage”. In addition, in data set [2] (4 h at 37° C., phosphate buffer pH 7, 10 U β-glucosidase), the “degradation in the presence of β-glucosidase (in words)” value was “degradation occurs”. This compound came in with a degradation in data set [2] (4 h of incubation at 37° C. with β-glucosidase, pH 7, from HPLC area of aglycone 21) of 80%.
